Counter-ions that a name gives are not always drawn.
How the values were obtained:
PI3Kα = target: T1, PI3Kα (Homo sapiens, UniProt P42336); test: PI3K enzyme assay of Example 7 ([γ-33P]ATP filter plate); format: biochemical
T1 construct: purchased Millipore (Bedford, Mass.)
Procedure: (§1) Materials: Lipid kinase substrate, phosphoinositol-4,5-bisphosphate (PIP2), are purchased from Echelon Biosciences (Salt Lake City, Utah). PI3K isoforms α, β, δ and γ are purchased from Millipore (Bedford, Mass.). ATP, MgCl2, DTT, EDTA, MOPS and CHAPS are purchased from Sigma-Aldrich (St. Louis, Mo.).
(§2) The kinase reaction are conducted in clear-bottom 96-well plate from Thermo Fisher Scientific in a final volume of 24 μL. Inhibitors are first diluted serially in DMSO and added to the plate wells before the addition of other reaction components. The final concentration of DMSO in the assay is 0.5%. The PI3K assays are carried out at room temperature in 20 mM MOPS, pH 6.7, 10 mM MgCl2, 5 mM DTT and CHAPS 0.03%. The reaction mixture is prepared containing 50 μM PIP2, kinase and varying concentration of inhibitors. Reactions are initiated by the addition of ATP containing 2.2 μCi [γ-^33P]ATP to a final concentration of 1000 μM. The final concentration of PI3K isoforms α, β, δ and γ in the assay were 1.3, 9.4, 2.9 and 10.8 nM, respectively. Reactions are incubated for 180 minutes and terminated by the addition of 100 μL of 1 M potassium phosphate pH 8.0, 30 mM EDTA quench buffer. A 100 μL aliquot of the reaction solution are then transferred to 96-well Millipore MultiScreen IP 0.45 μm PVDF filter plate (The filter plate is prewetted with 200 μL 100% ethanol, distilled water, and 1 M potassium phosphate pH 8.0, respectively). The filter plate is aspirated on a Millipore Manifold under vacuum and washed with 18×200 μL wash buffer containing 1 M potassium phosphate pH 8.0 and 1 mM ATP. After drying by aspiration and blotting, the plate is air dried in an incubator at 37° C. overnight. Packard TopCount adapter (Millipore) is then attached to the plate followed with addition of 120 μL Microscint 20 scintillation cocktail (Perkin Elmer) in each well. After the plate sealing, the radioactivity of the product is determined by scintillation counting on Topcount (Perkin-Elmer). IC50 determination is performed by fitting the curve of percent control activity versus the log of the inhibitor concentration using the GraphPad Prism 3.0 software.

PI3Kβ = target: T2, PI3Kβ (Homo sapiens, UniProt P42338); test: as above; format: biochemical
T2 construct: purchased Millipore (Bedford, Mass.)
T2 sequence (P42338 whole entry): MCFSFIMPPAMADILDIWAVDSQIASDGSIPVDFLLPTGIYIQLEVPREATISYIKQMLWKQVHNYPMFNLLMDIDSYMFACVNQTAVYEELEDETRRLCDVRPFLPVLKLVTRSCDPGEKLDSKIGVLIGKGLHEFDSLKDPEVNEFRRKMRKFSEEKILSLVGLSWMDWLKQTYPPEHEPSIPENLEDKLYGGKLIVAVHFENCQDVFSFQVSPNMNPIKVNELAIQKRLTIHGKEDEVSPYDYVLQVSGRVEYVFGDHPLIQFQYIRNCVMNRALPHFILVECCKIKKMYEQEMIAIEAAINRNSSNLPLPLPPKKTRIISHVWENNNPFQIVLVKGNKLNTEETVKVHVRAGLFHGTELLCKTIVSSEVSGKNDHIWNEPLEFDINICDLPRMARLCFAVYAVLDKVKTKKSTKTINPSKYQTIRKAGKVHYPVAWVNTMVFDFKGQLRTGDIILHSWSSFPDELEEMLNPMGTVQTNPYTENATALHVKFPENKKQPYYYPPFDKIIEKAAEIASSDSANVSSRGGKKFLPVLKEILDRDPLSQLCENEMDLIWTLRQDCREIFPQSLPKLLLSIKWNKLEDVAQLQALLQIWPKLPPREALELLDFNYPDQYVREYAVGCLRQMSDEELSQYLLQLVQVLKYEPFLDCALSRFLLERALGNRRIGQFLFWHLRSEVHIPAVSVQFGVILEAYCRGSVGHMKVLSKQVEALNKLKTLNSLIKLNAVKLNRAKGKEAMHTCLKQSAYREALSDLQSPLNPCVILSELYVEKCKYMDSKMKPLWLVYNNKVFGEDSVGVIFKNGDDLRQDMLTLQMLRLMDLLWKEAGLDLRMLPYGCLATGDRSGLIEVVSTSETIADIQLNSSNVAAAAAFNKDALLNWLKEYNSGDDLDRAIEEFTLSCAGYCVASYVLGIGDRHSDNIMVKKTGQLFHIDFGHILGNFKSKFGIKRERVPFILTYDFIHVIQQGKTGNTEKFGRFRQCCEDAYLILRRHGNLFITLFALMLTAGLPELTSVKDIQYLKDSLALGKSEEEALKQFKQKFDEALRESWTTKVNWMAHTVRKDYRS
T2 sequence (P27986 whole entry partner): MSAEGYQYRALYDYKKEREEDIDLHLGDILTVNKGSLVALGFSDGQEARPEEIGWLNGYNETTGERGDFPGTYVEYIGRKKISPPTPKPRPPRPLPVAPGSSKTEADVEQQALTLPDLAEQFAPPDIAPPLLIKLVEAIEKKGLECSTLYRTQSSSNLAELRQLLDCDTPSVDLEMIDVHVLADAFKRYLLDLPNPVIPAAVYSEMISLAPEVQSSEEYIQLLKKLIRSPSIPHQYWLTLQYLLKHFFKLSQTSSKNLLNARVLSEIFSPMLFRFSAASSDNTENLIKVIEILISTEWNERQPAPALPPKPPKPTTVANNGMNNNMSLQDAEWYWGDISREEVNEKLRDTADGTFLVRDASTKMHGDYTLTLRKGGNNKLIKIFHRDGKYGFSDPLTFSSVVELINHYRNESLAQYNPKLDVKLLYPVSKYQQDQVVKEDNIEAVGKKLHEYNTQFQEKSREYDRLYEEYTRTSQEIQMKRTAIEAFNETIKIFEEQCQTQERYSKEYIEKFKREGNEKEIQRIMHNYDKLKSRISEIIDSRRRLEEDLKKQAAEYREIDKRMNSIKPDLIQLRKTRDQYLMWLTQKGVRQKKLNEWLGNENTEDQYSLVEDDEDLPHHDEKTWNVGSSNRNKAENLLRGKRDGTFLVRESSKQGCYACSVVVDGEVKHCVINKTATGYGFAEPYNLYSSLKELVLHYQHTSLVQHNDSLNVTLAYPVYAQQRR
Procedure: as §1, §2

PI3Kγ = target: T3, PI3Kγ (Homo sapiens, UniProt P48736); test: as above; format: biochemical
T3 construct: purchased Millipore (Bedford, Mass.)
T3 sequence (P48736 whole entry): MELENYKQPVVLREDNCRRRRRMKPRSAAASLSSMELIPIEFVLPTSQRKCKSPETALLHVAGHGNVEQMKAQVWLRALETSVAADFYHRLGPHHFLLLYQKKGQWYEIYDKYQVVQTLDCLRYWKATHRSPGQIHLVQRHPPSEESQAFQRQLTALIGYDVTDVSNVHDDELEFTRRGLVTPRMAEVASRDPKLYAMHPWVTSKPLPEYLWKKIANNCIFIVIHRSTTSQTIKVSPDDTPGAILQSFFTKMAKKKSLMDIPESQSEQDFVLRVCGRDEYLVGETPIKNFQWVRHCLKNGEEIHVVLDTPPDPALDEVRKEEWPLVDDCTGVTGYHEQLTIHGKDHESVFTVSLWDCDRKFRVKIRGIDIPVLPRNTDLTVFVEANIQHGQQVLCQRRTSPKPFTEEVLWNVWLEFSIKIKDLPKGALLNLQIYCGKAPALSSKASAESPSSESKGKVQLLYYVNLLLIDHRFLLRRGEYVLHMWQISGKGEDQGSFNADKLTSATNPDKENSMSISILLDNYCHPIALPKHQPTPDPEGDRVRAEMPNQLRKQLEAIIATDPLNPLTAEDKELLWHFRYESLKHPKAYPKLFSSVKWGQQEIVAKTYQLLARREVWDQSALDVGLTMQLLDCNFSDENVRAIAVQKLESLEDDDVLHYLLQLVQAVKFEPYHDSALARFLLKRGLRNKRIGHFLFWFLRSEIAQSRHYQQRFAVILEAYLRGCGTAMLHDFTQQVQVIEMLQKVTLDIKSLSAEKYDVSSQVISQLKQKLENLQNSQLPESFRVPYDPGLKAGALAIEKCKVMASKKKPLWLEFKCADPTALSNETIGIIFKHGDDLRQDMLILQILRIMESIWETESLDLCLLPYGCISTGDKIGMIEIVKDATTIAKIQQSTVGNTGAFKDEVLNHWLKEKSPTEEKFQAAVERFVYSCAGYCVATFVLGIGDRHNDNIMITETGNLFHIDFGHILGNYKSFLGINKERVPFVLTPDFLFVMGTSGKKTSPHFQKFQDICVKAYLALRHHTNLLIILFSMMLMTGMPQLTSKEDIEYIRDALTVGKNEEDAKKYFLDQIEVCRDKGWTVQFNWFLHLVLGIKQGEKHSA
Procedure: as §1, §2

PI3Kδ = target: T4, PI3Kδ (Homo sapiens, UniProt O00329); test: as above; format: biochemical
T4 construct: purchased Millipore (Bedford, Mass.)
Procedure: as §1, §2

PI3Kδ (p110δ/p85α) = PI3Kδ (p110δ/p85α) (Homo sapiens, UniProt O00329); test: PI3Kδ scintillation proximity assay (Example 8); format: biochemical; details: 20 μM ATP, 4 nM PI3Kδ
PI3Kδ (p110δ/p85α), sequence (O00329 whole entry): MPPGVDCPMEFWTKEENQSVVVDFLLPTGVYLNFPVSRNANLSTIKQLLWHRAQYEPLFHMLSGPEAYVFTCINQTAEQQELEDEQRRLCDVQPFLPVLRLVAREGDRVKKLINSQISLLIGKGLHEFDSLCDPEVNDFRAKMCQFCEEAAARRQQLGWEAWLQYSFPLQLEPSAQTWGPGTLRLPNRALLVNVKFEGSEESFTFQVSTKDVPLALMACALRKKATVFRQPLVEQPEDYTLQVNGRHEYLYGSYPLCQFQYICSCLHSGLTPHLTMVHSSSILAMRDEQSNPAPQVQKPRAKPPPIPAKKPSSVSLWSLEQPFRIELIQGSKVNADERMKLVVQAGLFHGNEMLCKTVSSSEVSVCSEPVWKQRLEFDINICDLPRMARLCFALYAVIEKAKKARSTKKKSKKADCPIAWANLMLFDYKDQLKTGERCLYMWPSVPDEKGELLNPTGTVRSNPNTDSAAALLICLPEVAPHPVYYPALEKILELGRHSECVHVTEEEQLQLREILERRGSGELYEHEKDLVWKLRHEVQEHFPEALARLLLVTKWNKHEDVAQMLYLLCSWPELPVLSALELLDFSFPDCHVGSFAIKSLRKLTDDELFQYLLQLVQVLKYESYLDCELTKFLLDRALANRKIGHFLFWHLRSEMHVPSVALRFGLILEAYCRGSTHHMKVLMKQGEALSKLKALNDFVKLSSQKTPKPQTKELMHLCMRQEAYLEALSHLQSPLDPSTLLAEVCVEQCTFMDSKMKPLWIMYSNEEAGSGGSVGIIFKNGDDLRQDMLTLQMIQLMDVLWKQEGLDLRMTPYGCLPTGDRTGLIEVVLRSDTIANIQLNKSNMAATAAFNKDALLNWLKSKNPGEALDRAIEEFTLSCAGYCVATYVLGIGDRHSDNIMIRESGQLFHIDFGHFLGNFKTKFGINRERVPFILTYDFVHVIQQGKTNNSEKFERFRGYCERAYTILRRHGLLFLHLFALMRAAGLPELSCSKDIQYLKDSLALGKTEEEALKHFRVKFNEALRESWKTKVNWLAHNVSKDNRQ
PI3Kδ (p110δ/p85α), sequence (P27986 whole entry partner): as the sequence (P27986 whole entry partner) above
Text: Lipid kinase substrate, D-myo-Phosphatidylinositol 4,5-bisphosphate (PtdIns(4,5)P2)D (+)-sn-1,2-di-O-octanoylglyceryl, 3-O-phospho linked (PIP2), CAS 204858-53-7, was purchased from Echelon Biosciences (Salt Lake City, Utah). PI3Kδ (p110δ/p85α) was purchased from Millipore (Bedford, Mass.). ATP, MgCl2, DTT, EDTA, MOPS and CHAPS were purchased from Sigma-Aldrich (St. Louis, Mo.). Wheat Germ Agglutinin (WGA) YSi SPA Scintillation Beads was purchased from GE healthcare life sciences (Piscataway, N.J.).
The kinase reaction was conducted in polystyrene 384-well matrix white plate from Thermo Fisher Scientific in a final volume of 25 μL. Inhibitors were first diluted serially in DMSO and added to the plate wells before the addition of other reaction components. The final concentration of DMSO in the assay was 0.5%. The PI3K assays were carried out at room temperature in 20 mM MOPS, pH 6.7, 10 mM MgCl2, 5 mM DTT and CHAPS 0.03%. […] ATP, 4 nM PI3Kδ. Reactions were incubated for 210 min and terminated by the addition of 40 μL SPA beads suspended in quench buffer: 150 mM potassium phosphate pH 8.0, 20% glycerol. 25 mM EDTA, 400 μM ATP. […] After the plate sealing, plates were shaken overnight at room temperature and centrifuged at 1800 rpm for 10 minutes, the radioactivity of the product was determined by scintillation counting on Topcount (Perkin-Elmer). […]

IC90 value in the dermis = test: IC90 value in the dermis
Procedure: Based on initial studies it is believed that topical administration of a strength of 0.01% may result in mean plasma concentration of approximately 1 nM at steady state.

[1] = Free fraction by equilibrium dialysis, human plasma and homogenized human skin; format: in vitro ADME
Procedure: (§3) The concentration of Compound A was measured in the epidermis, dermis, and plasma 24 hours post application. Dermal concentrations in minipigs dosed with 1.0% w/w topical formulation were 8× higher compared with dermal concentrations in minipigs dosed with the 0.1% topical formulation. The epidermal concentration for 1.0% w/w topical formulation was 6× higher compared with the 0.1% w/w topical dose. The epidermal concentrations accounted for the combined drug levels in the stratum corneum and viable epidermis layers (i.e., skin samples were not tape stripped). Relatedly, the free fraction of Compound A in plasma and homogenized human skin was evaluated by equilibrium dialysis studies. The mean free fraction in human plasma and skin was […] respectively. In minipigs, the free fraction in plasma was measured at 3.1%.

[2] = Free fraction in plasma, minipig; format: in vitro ADME
Procedure: as §3

T1 sequence (P42336 whole entry): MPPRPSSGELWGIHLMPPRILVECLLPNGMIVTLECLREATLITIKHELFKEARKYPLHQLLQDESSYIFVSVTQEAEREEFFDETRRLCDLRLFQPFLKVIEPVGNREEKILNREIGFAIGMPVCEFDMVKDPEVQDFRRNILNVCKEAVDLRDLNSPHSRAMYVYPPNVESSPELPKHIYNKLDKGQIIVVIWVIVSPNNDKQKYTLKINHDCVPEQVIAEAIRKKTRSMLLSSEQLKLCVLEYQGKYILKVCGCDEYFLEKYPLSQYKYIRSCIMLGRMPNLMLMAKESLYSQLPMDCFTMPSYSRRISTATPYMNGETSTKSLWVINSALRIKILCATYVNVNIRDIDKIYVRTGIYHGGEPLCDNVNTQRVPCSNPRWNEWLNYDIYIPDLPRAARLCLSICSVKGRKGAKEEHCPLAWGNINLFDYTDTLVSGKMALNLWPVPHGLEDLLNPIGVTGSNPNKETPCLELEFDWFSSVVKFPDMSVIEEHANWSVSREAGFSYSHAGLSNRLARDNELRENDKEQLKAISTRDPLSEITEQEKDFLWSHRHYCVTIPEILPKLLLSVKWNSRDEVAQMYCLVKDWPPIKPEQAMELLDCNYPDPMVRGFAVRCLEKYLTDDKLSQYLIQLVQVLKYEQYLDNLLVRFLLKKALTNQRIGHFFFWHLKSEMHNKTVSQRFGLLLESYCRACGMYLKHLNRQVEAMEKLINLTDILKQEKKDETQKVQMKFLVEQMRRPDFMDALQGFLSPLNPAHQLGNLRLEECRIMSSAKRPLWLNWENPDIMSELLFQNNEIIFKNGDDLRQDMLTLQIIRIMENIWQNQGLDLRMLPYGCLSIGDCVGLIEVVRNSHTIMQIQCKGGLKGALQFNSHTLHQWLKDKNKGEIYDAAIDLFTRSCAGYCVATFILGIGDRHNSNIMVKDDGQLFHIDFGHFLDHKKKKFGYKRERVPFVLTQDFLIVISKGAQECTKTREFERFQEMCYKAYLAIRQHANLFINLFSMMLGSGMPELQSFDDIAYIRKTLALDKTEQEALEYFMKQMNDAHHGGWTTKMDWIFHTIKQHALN
T1 sequence (P27986 whole entry partner): as the sequence (P27986 whole entry partner) above

| Compound | selectivity for PI3Kδ over PI3Kα (PI3Kα) | selectivity for PI3Kδ over PI3Kβ (PI3Kβ) | selectivity for PI3Kδ over PI3Kγ (PI3Kγ) | selectivity for PI3Kδ (in words) (PI3Kδ) | IC50 (PI3Kδ (p110δ/p85α)) | IC90 (IC90 value in the dermis) | fraction unbound ([1]; homogenized skin, read-out: Mean free fraction in homogenized human skin) | fraction unbound ([1]; plasma, read-out: Mean free fraction in human plasma) | fraction unbound [2] |
| --- | --- | --- | --- | --- | --- | --- | --- | --- | --- |
| CCOc1c([C@H](C)n2nc(C)c3c(N)ncnc32)cc(Cl)c(F)c1[C@@H]1CNC(=O)C1 [Compound A HCl, (R)-4-(3-((S)-1-(4-Amino-3-methyl-1H-pyrazolo[3,4-d]pyrimidin-1-yl)ethyl)-5-chloro-2-ethoxy-6-fluorophenyl)pyrrolidin-2-one Hydrochloric Acid Salt] | > 100 fold | > 100 fold | > 100 fold | selective inhibitor for PI3Kδ | – | – | – | – | – |
| CCOc1c([C@H](C)n2nc(C)c3c(N)ncnc32)cc(Cl)c(F)c1[C@@H]1CNC(=O)C1 [Compound A, (R)-4-(3-((S)-1-(4-amino-3-methyl-1H-pyrazolo[3,4-d]pyrimidin-1-yl)ethyl)-5-chloro-2-ethoxy-6-fluorophenyl)pyrrolidin-2-one] | – | – | – | – | < 10 nM | ~20 nM | 0.33 | 0.074 | 0.031 |

— patent US20230190755A1, “Topical formulations of PI3K-delta inhibitors” (Incyte Corporation, priority 2021, published 2023)
